# Data: patent US11291726B2 (KOREA INSTITUTE OF SCIENCE AND TECHNOLOGY, priority 2018, dated 2022)
# Key:
# [1] = test system: HT-29 cells (human colon cancer) solid tumors; experiment: Cancer cell accumulation in cancer disease model via fluorescence imaging; format: in vivo; conditions: HT-29 tumor on left thigh of nude mice, 200 μL intravenously
# Description: The model with a cancer disease was prepared by subcutaneous injection of 1×10^7 HT-29 cells (human colon cancer, Korean Cell Line Bank) on the left thigh of 5-week-old male nude mice (Orientbio Inc., Korea). After 2 weeks of cancer cell transplantation, solid tumors were confirmed to be formed, and then subsequent experiments were performed.
# [2] = Photothermal efficiency (solution temperature under laser irradiation); format: physicochemical; conditions: laser 808 nm, 1 W; followed by temperature decrease due to photodegradation
# Description: Such an increase of photothermal efficiency of the ICG-Fe NPs is thought to be due to fluorescence of ICG, which competitively acts on the photothermal reaction and is present within the nanoparticles in a fluorescence-quenched state.
# nude mice = experiment: Toxicity in animal models (blood liver levels, liver/kidney tissue staining); format: in vivo; conditions: 200 μL intravenously, male nude mice, two days later
# Description: Two days later, blood and liver/kidney tissues were collected and evaluated for toxicity.
compound,measurement,setting,value
"CC1(C)C(/C=C/C=C/C=C/C=C2\N(CCCCS(=O)(=O)O)c3ccc4ccccc4c3C2(C)C)=[N+](CCCCS(=O)(=O)[O-])c2ccc3ccccc3c21 [ICG, indocyanine green]",fluorescence at the cancer site (accumulation),[1],did not show fluorescence at the cancer site
same,temperature increase at the beginning of laser irradiation,[2],about 45 °C
same,AST/ALT values (blood liver levels),nude mice,normal levels
same,immunostained liver/kidney tissues,nude mice,no abnormalities were found
